According to patent publication US11959088B2, “Modifying protein production in plants” (MEDICAGO INC., priority 2014, dated 2024):

Tests used:
[1] = test system: Nicotiana benthamiana plants; assay: BAP treatment after seedling transplantation: HA production (hemagglutination assay) after agroinfiltration with construct 484; assay type: in vivo; conditions: 500 ppm after 7 and 12 days
[2] = test system: Nicotiana benthamiana plants; assay: BAP treatment after seedling transplantation: primary and secondary leaf biomass; assay type: in vivo
[3] = 500 ppm 7 days after transplantation

## c1ccc(CNc2ncnc3nc[nH]c23)cc1 [BAP, 6-benzylaminopurine]
[1]; versus control (non-treated) plants
  increase of total HA yield per plant: 45-50%
[1]; control less than 200,000 units (FIG. 10)
  yield of HA per g fresh weight: more than 300,000 units per g fresh weight
[2]; 100, 500 or 1,000 ppm, 7 and/or 12 days after transplantation (FIG. 9)
  effect on primary biomass: little effect
[2]; 100 or 500 ppm, 7 and/or 12 days after transplantation (FIG. 9)
  effect on secondary biomass production: significant positive effect
[2]; [3]
  increase for primary biomass compared to control: less than 10%
  relative increase of secondary leaf biomass compared to control (non-treated) plants: about 37.5%
[2]; 1,000 ppm treatment (FIG. 9)
  effect on secondary biomass production: no positive impact
[2]; plants treated with 500 ppm 7 days after transplantation, control ca. 16 g
  secondary leaf biomass harvested: ca. 22 g
